# Results taken from US8450318B2 (priority 2007, dated 2013).
# pEC50: −log10 of the molar value. Read-outs that look alike come from different tables or passages of the source.
# Experiments:
# Influenza A H1N1 subtype = assay: Anti-influenza activity in MDCK cells, Influenza A H1N1; format: cell-based; details: for pEC50: reference compounds; for EC50 Influenza A H1N1 subtype MTS: cell viability, formazan-based MTS assay; for EC50 Influenza A H1N1 subtype visual CPE score: visual scoring of the CPE
# Excerpt: (§1) MDCK cells (Madin Darby canine kidney cells) have been used for the experiments shown in table 5 using standard procedures known in the art.
# Influenza A H3N2 subtype = assay: Anti-influenza activity in MDCK cells, Influenza A H3N2; format: cell-based; details: for pEC50: reference compounds; for EC50 Influenza A H3N2 subtype MTS: cell viability, formazan-based MTS assay; for EC50 Influenza A H3N2 subtype visual CPE score: visual scoring of the CPE
# Excerpt: as §1
# Influenza B = assay: Anti-influenza activity in MDCK cells, Influenza B; format: cell-based; details: for pEC50: reference compounds; for EC50 Influenza B MTS: cell viability, formazan-based MTS assay; for EC50 Influenza B visual CPE score: visual scoring of the CPE
# CEM cells = assay: Cytostatic/cytotoxic activity, inhibition of CEM cell proliferation; details: Table 1; for CC50: 50% cytostatic concentration, CEM cell proliferation
# HIV-2 = assay: Antiretrovirus assay, HIV-2
# Feline Corona virus = assay: Activity on feline corona virus in CRFK cells; format: cell-based
# CRFK cells [1] = details: cytotoxicity, feline corona virus test
# CRFK cells [2] = details: cytotoxicity, human corona virus test
# [3] = test system: human corona (SARS) virus; assay: microbe, parasite or virus in culture; format: cell-based; details: human corona (SARS) virus
# [4] = test system: Herpes simplex virus-1 TK KOS-ACV^r; assay: Antiviral activity, Herpes simplex virus-1 TK KOS-ACVr; format: cell-based; details: Human alphaherpesvirus 1, read-out: EC50 Herpes simplex virus-1 TK KOS-ACV^r
# Vaccinia virus = assay: microbe, parasite or virus in culture; format: cell-based; details: Orthopoxvirus vaccinia, read-out: EC50 Vaccinia virus
# [5] = test system: Herpes simples virus-2 (G); assay: Antiviral activity, Herpes simplex virus-2 (G); format: cell-based; details: Human alphaherpesvirus 2; Table 4, reference compounds
# [6] = test system: Vesicular stomatitis virus; assay: microbe, parasite or virus in culture; format: cell-based; details: read-out: EC50 Vesicular stomatitis virus
# [7] = test system: Herpes simplex virus-1 (KOS); assay: Antiviral activity, Herpes simplex virus-1 (KOS); format: cell-based; details: Human alphaherpesvirus 1; Table 4, reference compounds
# [8] = MTS, read-out: EC50 Influenza A H1N1 subtype MTS
# [9] = visual CPE, read-out: EC50 Influenza A H1N1 subtype visual CPE score
# [10] = MTS, read-out: EC50 Influenza A H3N2 subtype MTS
# [11] = visual CPE, read-out: EC50 Influenza A H3N2 subtype visual CPE score
# [12] = MTS, read-out: EC50 Influenza B MTS
# [13] = visual CPE, read-out: EC50 Influenza B visual CPE score
# [14] = Table 1, CEM cells, prevention of syncytium formation by 50%, 4 to 5 days
structure (smiles),measurement,setting,value
"CC(N)C12CC3CC(CC(C3)C1)C2 (centres unmarked) [Rimantadin, reference compound]",pEC50,Influenza A H1N1 subtype; [8],5.00
same,pEC50,Influenza A H1N1 subtype; [9],5.05
same,pEC50,Influenza A H3N2 subtype; [10],6.05
same,pEC50,Influenza A H3N2 subtype; [11],5.68
same,pEC50,Influenza B; [12],< 4.00
same,pEC50,Influenza B; [13],< 4.00
CC(=NO)c1cccc(NCc2c(C)c(CNc3cccc(C(C)=NO)c3)c(C)c(CNc3cccc(C(C)=NO)c3)c2C)c1 [Compound 27],CC50,CEM cells,20.4 ± 11.4 µg/mL
same,EC50 HIV-2,HIV-2; Table 1,>4 µg/mL
same,EC50 HIV-1,HIV-1; [14],>4 µg/mL
CCc1c(CNc2cccc(C(C)=NO)c2)c(CC)c(CNc2cc(C)cc(C)n2)c(CC)c1CNc1cc(C)cc(C)n1 [ABT5],EC50 Influenza A H1N1 subtype MTS,Influenza A H1N1 subtype,>4 µg/mL
same,EC50 Influenza A H1N1 subtype visual CPE score,Influenza A H1N1 subtype,>4 µg/mL
same,EC50 Influenza A H3N2 subtype MTS,Influenza A H3N2 subtype,>4 µg/mL
same,EC50 Influenza A H3N2 subtype visual CPE score,Influenza A H3N2 subtype,>4 µg/mL
same,EC50 Influenza B MTS,Influenza B,>4 µg/mL
same,EC50 Influenza B visual CPE score,Influenza B,>4 µg/mL
CCc1c(CNc2cc(C)cc(C)n2)c(CC)c(CNc2ccc3ccc(C)nc3n2)c(CC)c1CNc1ccc2ccc(C)nc2n1 [Co54],EC50 HIV-2,HIV-2; Table 1a,>2 µg/mL
same,EC50 HIV-1,HIV-1; Table 1a,>2 µg/mL
CCc1c(CNc2cccc(C(C)=NO)c2)c(CC)c(CNc2cccc(C(C)=NO)c2)c(CC)c1CNc1cccc(C(C)=NO)c1 [Compound 28],CC50,CEM cells,10.0 ± 0.98 µg/mL
same,EC50 HIV-2,HIV-2; Table 1,>4 µg/mL
same,EC50 HIV-1,HIV-1; [14],>4 µg/mL
CCc1c(CC#N)c(CC)c(CNc2cc(C)cc(C)n2)c(CC)c1CNc1cc(C)cc(C)n1 [Co19],EC50 HIV-2,HIV-2; Table 1a,>2 µg/mL
same,Feline Corona virus EC50,Feline Corona virus,>4 µg/mL
same,EC50 HIV-1,HIV-1; Table 1a,>2 µg/mL
same,Feline Corona virus CC50,CRFK cells [1],10.8 µg/mL
CCc1c(CNCC2COCCOCCOCCOCCO2)c(CC)c(CNc2cc(C)cc(C)n2)c(CC)c1CNc1cc(C)cc(C)n1 (centres unmarked) [Co12],Human Corona virus CC50,CRFK cells [2],13 ± 1.2 µg/mL
same,Human Corona virus EC50,[3],1.9 ± 0.6 µg/mL
same,EC50 HIV-2,HIV-2; Table 1a,>4 µg/mL
same,Feline Corona virus EC50,Feline Corona virus,1.4 ± 0.2 µg/mL
same,EC50 HIV-1,HIV-1; Table 1a,1.35 ± 0.29 µg/mL
same,Feline Corona virus CC50,CRFK cells [1],11 ± 0 µg/mL
CCc1c(CN)c(CC)c(CNc2cc(C)cc(C)n2)c(CC)c1CNc1cc(C)cc(C)n1.Cl [Co28],EC50 Influenza A H1N1 subtype MTS,Influenza A H1N1 subtype,>0.8 µg/mL
same,EC50 Influenza A H1N1 subtype visual CPE score,Influenza A H1N1 subtype,>0.8 µg/mL
same,EC50 Influenza A H3N2 subtype MTS,Influenza A H3N2 subtype,>0.8 µg/mL
same,EC50 Influenza A H3N2 subtype visual CPE score,Influenza A H3N2 subtype,>0.8 µg/mL
same,EC50 Influenza B MTS,Influenza B,>0.8 µg/mL
same,EC50 Influenza B visual CPE score,Influenza B,>0.8 µg/mL
"CCC(CC)O[C@@H]1C=C(C(=O)O)C[C@H](N)[C@H]1NC(C)=O [Oseltamivir caboxylate, reference compound]",pEC50,Influenza A H1N1 subtype; [8],8.52
same,pEC50,Influenza A H1N1 subtype; [9],8.40
same,pEC50,Influenza A H3N2 subtype; [10],5.80
same,pEC50,Influenza A H3N2 subtype; [11],5.74
same,pEC50,Influenza B; [12],5.59
same,pEC50,Influenza B; [13],5.40
Cc1ccc(O)c(NC(=O)c2cc(C(=O)Nc3cc(C)ccc3O)cc(C(=O)Nc3cc(C)ccc3O)c2)c1 [Phe-Kresol],EC50 Influenza A H1N1 subtype MTS,Influenza A H1N1 subtype,>0.8 µg/mL
same,EC50 Influenza A H1N1 subtype visual CPE score,Influenza A H1N1 subtype,>0.8 µg/mL
same,EC50 Influenza A H3N2 subtype MTS,Influenza A H3N2 subtype,>0.8 µg/mL
same,EC50 Influenza A H3N2 subtype visual CPE score,Influenza A H3N2 subtype,>0.8 µg/mL
same,EC50 Influenza B MTS,Influenza B,>0.8 µg/mL
same,EC50 Influenza B visual CPE score,Influenza B,>0.8 µg/mL
Cc1cc(C)c2ccc(NC(=O)c3cc(C(=O)Nc4ccc5c(C)cc(C)nc5n4)cc(C(=O)Nc4ccc5c(C)cc(C)nc5n4)c3)nc2n1 [Sc75],EC50 Influenza A H1N1 subtype MTS,Influenza A H1N1 subtype,>4 µg/mL
same,EC50 Influenza A H1N1 subtype visual CPE score,Influenza A H1N1 subtype,>4 µg/mL
same,EC50 Influenza A H3N2 subtype MTS,Influenza A H3N2 subtype,>4 µg/mL
same,EC50 Influenza A H3N2 subtype visual CPE score,Influenza A H3N2 subtype,>4 µg/mL
same,EC50 Influenza B MTS,Influenza B,>4 µg/mL
same,EC50 Influenza B visual CPE score,Influenza B,>4 µg/mL
Cc1cccc(NC(=O)c2cc(C(=O)Nc3cccc(C)n3)cc(C(=O)Nc3cccc(C)n3)c2)n1 [Compound 30],cytotoxicity (in words),CEM cells,low cytotoxicity
same,CC50,CEM cells,>100 µg/mL
same,EC50 HIV-2,HIV-2; Table 1,>20 µg/mL
same,EC50 HIV-1,HIV-1; [14],>20 µg/mL
CCc1c(CNc2cccc(CO)c2)c(CC)c(CNc2cc(C)cc(C)n2)c(CC)c1CNc1cc(C)cc(C)n1 [ABT6],EC50 HIV-2,HIV-2; Table 1a,>2 µg/mL
same,EC50 HIV-1,HIV-1; Table 1a,>2 µg/mL
Cc1ccc2ccc(NCc3c(C)c(CNc4ccc5ccc(C)nc5n4)c(C)c(CNc4ccc5ccc(C)nc5n4)c3C)nc2n1 [Compound 24],Human Corona virus CC50,CRFK cells [2],>100 µg/mL
same,Human Corona virus EC50,[3],38 ± 1 µg/mL
same,Feline Corona virus EC50,Feline Corona virus,42 ± 0 µg/mL
same,Feline Corona virus CC50,CRFK cells [1],>100 µg/mL
CCc1c(CNc2cc(C)cc(C)n2)c(CC)c(CNc2ccc3ccc(C)nc3n2)c(CC)c1CNc1cc(C)cc(C)n1 [Co50],EC50 HIV-2,HIV-2; Table 1a,>2 µg/mL
same,EC50 HIV-1,HIV-1; Table 1a,>2 µg/mL
Nc1nc(O)c2ncn(COC(CO)CO)c2n1 [Ganciclovir],pEC50,[4],4.92
same,pEC50,Vaccinia virus,4.00
same,pEC50,[5],7.49
same,pEC50,[6],< 3.82
same,pEC50,[7],8.19
"NC12CC3CC(CC(C3)C1)C2 [Amantadin, reference compound]",pEC50,Influenza A H1N1 subtype; [8],4.23
same,pEC50,Influenza A H1N1 subtype; [9],4.23
same,pEC50,Influenza A H3N2 subtype; [10],5.80
same,pEC50,Influenza A H3N2 subtype; [11],5.40
same,pEC50,Influenza B; [12],< 4.00
same,pEC50,Influenza B; [13],< 4.00
Cc1ccc(NCc2c(C)c(CNc3ccc(C)cn3)c(C)c(CNc3ccc(C)cn3)c2C)nc1 [Compound 26],CC50,CEM cells,22.0 ± 8.2 µg/mL
same,EC50 HIV-2,HIV-2; Table 1,>4 µg/mL
same,EC50 HIV-1,HIV-1; [14],>4 µg/mL
CCOC(=O)CNc1cccc(NCc2c(CC)c(CNc3cccc(C)n3)c(CC)c(CNc3cccc(C)n3)c2CC)n1 [AH29],Feline Corona virus EC50,Feline Corona virus,>4 µg/mL
same,Feline Corona virus CC50,CRFK cells [1],13.3 µg/mL
CCc1c(CNc2cccc(C)n2)c(CC)c(CNc2cccc(NC(=O)Cc3ccccc3)n2)c(CC)c1CNc1cccc(C)n1 [AH30],EC50 Influenza A H1N1 subtype MTS,Influenza A H1N1 subtype,>4 µg/mL
same,EC50 Influenza A H1N1 subtype visual CPE score,Influenza A H1N1 subtype,>4 µg/mL
same,EC50 Influenza A H3N2 subtype MTS,Influenza A H3N2 subtype,>4 µg/mL
same,EC50 Influenza A H3N2 subtype visual CPE score,Influenza A H3N2 subtype,>4 µg/mL
same,EC50 Influenza B MTS,Influenza B,>4 µg/mL
same,EC50 Influenza B visual CPE score,Influenza B,>4 µg/mL
Cc1ccc2ccc(NC(=O)c3cccc(C(=O)Nc4ccc5ccc(C)nc5n4)c3)nc2n1 [Sc74],Feline Corona virus EC50,Feline Corona virus,29.0 ± 4.8 µg/mL
same,Feline Corona virus CC50,CRFK cells [1],>100 µg/mL
same,EC50 Influenza A H1N1 subtype MTS,Influenza A H1N1 subtype,9.6 µg/mL
same,EC50 Influenza A H1N1 subtype visual CPE score,Influenza A H1N1 subtype,15.1 ± 7.0 µg/mL
same,EC50 Influenza A H3N2 subtype MTS,Influenza A H3N2 subtype,12.5 µg/mL
same,EC50 Influenza A H3N2 subtype visual CPE score,Influenza A H3N2 subtype,14.5 ± 7.8 µg/mL
same,EC50 Influenza B MTS,Influenza B,9.9 µg/mL
same,EC50 Influenza B visual CPE score,Influenza B,10.9 ± 1.1 µg/mL
Nc1nc2c(ncn2COCCO)c(=O)[nH]1 [Acyclovir],pEC50,[4],3.82
same,pEC50,Vaccinia virus,< 3.60
same,pEC50,[5],7.10
same,pEC50,[6],< 3.60
same,pEC50,[7],6.40
CCc1c(CN)c(CC)c(CNc2cc(C)cc(C)n2)c(CC)c1CNc1cc(C)cc(C)n1 [Compound 29],CC50,CEM cells,1.69 ± 0.02 µg/mL
same,EC50 HIV-2,HIV-2; Table 1,>0.8 µg/mL
same,EC50 HIV-1,HIV-1; [14],>0.16 µg/mL
same,EC50 Influenza A H1N1 subtype MTS,Influenza A H1N1 subtype,>0.8 µg/mL
same,EC50 Influenza A H1N1 subtype visual CPE score,Influenza A H1N1 subtype,>0.8 µg/mL
same,EC50 Influenza A H3N2 subtype MTS,Influenza A H3N2 subtype,>0.8 µg/mL
same,EC50 Influenza A H3N2 subtype visual CPE score,Influenza A H3N2 subtype,>0.8 µg/mL
same,EC50 Influenza B MTS,Influenza B,>0.8 µg/mL
same,EC50 Influenza B visual CPE score,Influenza B,>0.8 µg/mL
